Experimental data: patent US6465457B1 (priority 1991, dated 2002)
Read-outs that look alike come from different tables or passages of the source.

Tests used:
Assay type in all cases: in vivo
[1] = test system: Thanatephorus cucumeries (Rice); assay: Foliar fungal disease test on plants: Thanatephorus cucumeries (Rice); conditions: one or two days before inoculation
Septoria nodorum (Wheat) = assay: Foliar fungal disease test on plants: Septoria nodorum (Wheat); conditions: one or two days before inoculation
[2] = test system: Erysiphe graminis tritici (Wheat); assay: Foliar fungal disease test on plants: Erysiphe graminis tritici (Wheat); conditions: plants inoculated 24 hours before treatment
[3] = test system: Plasmopara viticola (Vines); assay: Foliar fungal disease test on plants: Plasmopara viticola (Vines); conditions: one or two days before inoculation
[4] = test system: Venturia inaequalis (Apples); assay: Foliar fungal disease test on plants: Venturia inaequalis (Apples); conditions: one or two days before inoculation
[5] = test system: Pyricularia oryzae (Rice); conditions: one or two days before inoculation
[6] = test system: Puccinia recondita (Wheat); assay: Foliar fungal disease test on plants: Puccinia recondita (Wheat)
Procedure: The compounds were tested against a variety of foliar fungal diseases of plants. The technique employed was as follows.
The plants were grown in John Innes Potting Compost (No 1 or 2) in 4 cm diameter minipots. The test compounds were formulated either by bead milling with aqueous DISPERSOL T or as a solution in acetone or acetone/ethanol which was diluted to the required concentration immediately before use. The formulations (100 ppm active ingredient) were sprayed on to the foliage or applied to the roots of the plants in the soil. The sprays were applied to maximum retention and the root drenches to a final concentration equivalent to approximately 40 ppm a.i. in dry soil. TWEEN 20 was added to give a final concentration of 0.05% when the sprays were applied to cereals.
[…] An exception was the test on Erysiphe graminis in which the plants were inoculated 24 hours before treatment. Foliar pathogens were applied by spray as zoosporangial suspensions onto the leaves of test plants. After inoculation, the plants were put into an appropriate environment to allow infection to proceed and then incubated until the disease was ready for assessment. The period between inoculation and assessment varied from four to fourteen days according to the disease and environment.
The disease level present (i.e. leaf area covered by actively sporulating disease) on each of the treated plants was recorded using the following assessment scale:
Each assessment was then expressed as a percentage of the level of disease present on the untreated control plants. This calculated value is referred to as a POCO (Percentage of Control) value. An example of a typical calculation is as follows:
Disease level on untreated control=90
Disese level on treated plant=30 [formula]
This calculated POCO value is then rounded to the nearest of the values in the 9-point assessment scale shown above. In this particular example, the POCO value would be rounded to 30. If the calculated POCO falls exactly mid-way between two of the points, it is rounded to the lower of the two values.

[7] = test system: Phytophthora infestans (Tomatoes); conditions: one or two days before inoculation
[8] = 100 ppm a.i. foliar spray or root drench (approx. 40 ppm in dry soil)
[9] = 100 ppm a.i. foliar spray or root drench, plants inoculated with Puccinia recondita 48 hours before treatment
[10] = 100 ppm a.i. foliar spray or root drench (approx. 40 ppm in dry soil), one or two days before inoculation
[11] = 10 ppm foliar spray only, plants inoculated with Puccinia recondita 48 hours before treatment

SMILES | POCO (Percentage of Control) disease level, Thanatephorus cucumeries (Rice) [1, 8] | POCO (Percentage of Control) disease level, Septoria nodorum (Wheat) (Septoria nodorum (Wheat); [8]) | POCO (Percentage of Control) disease level, Erysiphe graminis tritici (Wheat) [2, 8] | POCO (Percentage of Control) disease level, Plasmopara viticola (Vines) [3, 8] | POCO (Percentage of Control) disease level, Venturia inaequalis (Apples) [4, 8] | POCO (Percentage of Control) disease level, Pyricularia oryzae (Rice) [5, 8] | POCO (Percentage of Control) disease level, Puccinia recondita (Wheat) [6, 9] | POCO (Percentage of Control) disease level, Phytophthora infestans (Tomatoes) [7, 8] | POCO (Percentage of Control) disease level, Puccinia recondita (Wheat) [6, 10] | POCO (Percentage of Control) disease level, Thanatephorus cucumeries (Rice) ([1]; 10 ppm foliar spray only) | POCO (Percentage of Control) disease level, Septoria nodorum (Wheat) (Septoria nodorum (Wheat); 10 ppm foliar spray only) | POCO (Percentage of Control) disease level, Erysiphe graminis tritici (Wheat) ([2]; 10 ppm foliar spray only) | POCO (Percentage of Control) disease level, Plasmopara viticola (Vines) ([3]; 10 ppm foliar spray only) | POCO (Percentage of Control) disease level, Venturia inaequalis (Apples) ([4]; 10 ppm foliar spray only) | POCO (Percentage of Control) disease level, Pyricularia oryzae (Rice) ([5]; 10 ppm foliar spray only) | POCO (Percentage of Control) disease level, Puccinia recondita (Wheat) [6, 11] | POCO (Percentage of Control) disease level, Phytophthora infestans (Tomatoes) ([7]; 10 ppm foliar spray only)
COC=C(C(=O)OC)c1ccccc1COC(=O)N1CCCCC1 [2 (133)] | 90 (90 and 94 = 60.1-100% disease present) | 90 (90 and 94 = 60.1-100% disease present) | 60 (60 = 30.1-60% disease present) | 5 (5 = 3.1-5% disease present) | 5 (5 = 3.1-5% disease present) | 20 (20 and 24 = 10.1-20% disease present) | 90+ (90 and 94 = 60.1-100% disease present) | 90 (90 and 94 = 60.1-100% disease present) | – | – | – | – | – | – | – | – | –
COC=C(C(=O)OC)c1ccccc1COC(=O)Nc1ccccc1F [3 (1)] | 90 (90 and 94 = 60.1-100% disease present) | 0 (0 = 0% disease present) | 0 (0 = 0% disease present) | 0 (0 = 0% disease present) | 1 (1 = 0.1-1% disease present) | 90 (90 and 94 = 60.1-100% disease present) | – | 30 (30 = 20.1-30% disease present) | 0 (0 = 0% disease present) | – | – | – | – | – | – | – | –
CO/C=C(/C(=O)OC)c1ccccc1COC(=O)NN1CCOCC1 [3 (133), (E)-methyl 3-methoxy-2-[2-(morpholinocarbamoyloxymethyl)phenyl]propenoate] | 90 (90 and 94 = 60.1-100% disease present) | 90 (90 and 94 = 60.1-100% disease present) | 90 (90 and 94 = 60.1-100% disease present) | 90 (90 and 94 = 60.1-100% disease present) | 60 (60 = 30.1-60% disease present) | 90 (90 and 94 = 60.1-100% disease present) | 90+ (90 and 94 = 60.1-100% disease present) | 90 (90 and 94 = 60.1-100% disease present) | – | – | – | – | – | – | – | – | –
COC=C(C(=O)OC)c1ccccc1COC(=O)NCc1ccccc1 [4 (1)] | 90 (90 and 94 = 60.1-100% disease present) | 30 (30 = 20.1-30% disease present) | 90 (90 and 94 = 60.1-100% disease present) | 20 (20 and 24 = 10.1-20% disease present) | 60 (60 = 30.1-60% disease present) | 90 (90 and 94 = 60.1-100% disease present) | – | 60 (60 = 30.1-60% disease present) | 30 (30 = 20.1-30% disease present) | – | – | – | – | – | – | – | –
COC=C(C(=O)OC)c1ccccc1COC(=O)N1CCSCC1 [4 (133)] | 60 (60 = 30.1-60% disease present) | 90 (90 and 94 = 60.1-100% disease present) | 90 (90 and 94 = 60.1-100% disease present) | 0 (0 = 0% disease present) | 10 (10 = 5.1-10% disease present) | 90 (90 and 94 = 60.1-100% disease present) | 60+ (60 = 30.1-60% disease present) | 90 (90 and 94 = 60.1-100% disease present) | – | – | – | – | – | – | – | – | –
CO/C=C(/C(=O)OC)c1ccccc1COC(=O)Nc1ccccc1 [5 (1), (E)-methyl 3-methoxy-2-[2-((phenyl)carbamoyloxymethyl)phenyl]propenoate] | 60 (60 = 30.1-60% disease present) | 30 (30 = 20.1-30% disease present) | 60 (60 = 30.1-60% disease present) | 5 (5 = 3.1-5% disease present) | 30 (30 = 20.1-30% disease present) | 10 (10 = 5.1-10% disease present) | – | 60 (60 = 30.1-60% disease present) | 60 (60 = 30.1-60% disease present) | – | – | – | – | – | – | – | –
COC=C(C(=O)OC)c1ccccc1COC(=S)Oc1ccccc1 [5 (12)] | – | – | – | – | – | – | – | – | – | 60 (60 = 30.1-60% disease present) | 90 (90 and 94 = 60.1-100% disease present) | 60 (60 = 30.1-60% disease present) | 3 (3 = 1.1-3% disease present) | 0 (0 = 0% disease present) | 60 (60 = 30.1-60% disease present) | 90+ (90 and 94 = 60.1-100% disease present) | 90 (90 and 94 = 60.1-100% disease present)
CNC(=O)C(=NOC)c1ccccc1COC(=O)Nc1ccccc1 [5 (65)] | – | – | – | – | – | – | – | – | – | 90 (90 and 94 = 60.1-100% disease present) | 90 (90 and 94 = 60.1-100% disease present) | 30 (30 = 20.1-30% disease present) | 90 (90 and 94 = 60.1-100% disease present) | 90 (90 and 94 = 60.1-100% disease present) | 30 (30 = 20.1-30% disease present) | 90+ (90 and 94 = 60.1-100% disease present) | 90 (90 and 94 = 60.1-100% disease present)
CNC(=O)C(=NOC)c1ccccc1COC(=O)N(C)c1ccccc1 [5 (66)] | 0 (0 = 0% disease present) | 5 (5 = 3.1-5% disease present) | 0 (0 = 0% disease present) | 0 (0 = 0% disease present) | 0 (0 = 0% disease present) | 0 (0 = 0% disease present) | 10+ (10 = 5.1-10% disease present) | 0 (0 = 0% disease present) | – | – | – | – | – | – | – | – | –
